Results: publication PMC5215686 (Journal of medicinal chemistry, 2016)
Several values for one entry are separate records, joined by “and”; a condition that tells them apart may be missing. Identical values can stand only once.

Columns and labels:
Sprague-Dawley rats = assay: Vogel conflict test; format: in vivo; settings: rat
HEK293T cells = assay: Cytotoxicity, CellTiter-Glo; format: cell-based, human; settings: for Cytotoxicity in words: 18 h, 100 μM; for Cytotoxicity (18 h) LD50: CellTiter-Glo, n = 4
[1] = Plasma and brain exposure after dosing in rats; format: in vivo, Sprague-Dawley rats; settings: rat; for Plasma exposure in words: i.v. (1 mg/kg) or p.o. (10 mg/kg); for Total Plasma Concentration, 15 min / Total Plasma Concentration, 30 min / Total Plasma Concentration, 60 min / Brain concentration of dosed ligand, 120 min / Total Plasma Concentration, 120 min / Brain concentration of dosed ligand, 60 min: p.o. 10 mg/kg; for Total Plasma Concentration, 15 min / Total Plasma Concentration, 30 min / Total Plasma Concentration, 60 min / Brain concentration of dosed ligand, 120 min / Total Plasma Concentration, 120 min: BQL: quantifiable limit < 12.2 nM
NIH Swiss Webster mice [2] = assay: Rotarod assay; format: in vivo; settings: 4 r.p.m., 2 min; for Rotarod motorsensory behavior, 10 mg/kg: i.p. 10 mg/kg
NIH Swiss Webster mice [3] = assay: Marble burying assay; format: in vivo
[4] = Rat pharmacokinetics i.v. and i.p., plasma and brain concentrations; format: in vivo, Sprague-Dawley rats
[5] = Solubility by light scattering; format: physicochemical; settings: pH=7, by light scattering

CNC1=Nc2ccc(Cl)cc2C(c2ccccc2)=[N+]([O-])C1 [CDAP, chlordiazepoxide, reference compound]
Vogel conflict, response rate in the unpunished session, 20 mg/kg (Sprague-Dawley rats; 20 mg/kg i.p.): Neither
Vogel conflict, punished response over control, 20 mg/kg (Sprague-Dawley rats; 20 mg/kg i.p., P < 0.05): 330%

C#Cc1ccc2c(c1)C(c1ccccn1)=NCc1c(C(=O)OCC)ncn1-2 [compound 2]
Vogel conflict, difference from vehicle in words, 30 mg/kg (Sprague-Dawley rats; 30 mg/kg i.p.): no discernable difference
Cytotoxicity in words (HEK293T cells): non-toxic
Plasma exposure in words [1]: poor
Total Plasma Concentration, 15 min [1]: BQL ^c
Total Plasma Concentration, 30 min [1]: BQL ^c
Total Plasma Concentration, 60 min [1]: BQL ^c
Brain concentration of dosed ligand, 120 min [1]: (120) BQL ^c
Total Plasma Concentration, 120 min [1]: BQL ^c

C#Cc1ccc2c(c1)C(c1ccccn1)=NCc1c(C(=O)O)ncn1-2 [compound 4]
Brain concentration of dosed ligand, 120 min [1]: (120) BQL ^c

[2H]C([2H])(C)OC(=O)c1ncn2c1CN=C(c1ccccn1)c1cc(C#C)ccc1-2 [compound 5]
Plasma exposure in words [1]: poor
Total Plasma Concentration, 15 min [1]: BQL ^c
Total Plasma Concentration, 30 min [1]: BQL ^c
Total Plasma Concentration, 60 min [1]: BQL ^c
Brain concentration of dosed ligand, 120 min [1]: (120) BQL ^c
Total Plasma Concentration, 120 min [1]: BQL ^c

C#Cc1ccc2c(c1)C(c1ccccn1)=NCc1c(-c3nc(C)no3)ncn1-2 [compound 6]
Cytotoxicity in words (HEK293T cells): non-toxic
Rotarod motorsensory behavior, 10 mg/kg (NIH Swiss Webster mice [2]): very minor impairment

C#Cc1ccc2c(c1)C(c1ccccn1)=NCc1c(-c3nc(CC)no3)ncn1-2 [compound 7]
Marble burying vs. vehicle, 10 mg/kg (NIH Swiss Webster mice [3]; i.p. 10 mg/kg, 30 min prior to testing): significant reduction
Sedation-like behavior observed in marble burying (NIH Swiss Webster mice [3]; i.p. 30 mg/kg): weak signs of sedation
Cytotoxicity in words (HEK293T cells): non-toxic
Brain concentration of dosed ligand, 60 min [1]: (60) 3090 nM

C#Cc1ccc2c(c1)C(c1ccccc1)=NCc1c(-c3cnco3)ncn1-2 [compound 8]
Cytotoxicity (18 h) LD50 (HEK293T cells): 66.8 µM and 66.8 ± 9 µM

C#Cc1ccc2c(c1)C(c1ccccn1)=NCc1c(-c3cnco3)ncn1-2 [compound 9, 5-(8-Ethynyl-6-(pyridin-2-yl)-4H-benzo[f]imidazo[1,5-a][1,4]diazepin-3-yl)oxazole]
time of Cmax ([4]; 10 mg/kg i.p.): 2.0 h
Unbound Concentration (Cu), Brain ([4]; 4 hours after 10 mg/kg i.p., free fraction x total concentration): 363 nM
Vogel conflict, punished response vs. control, 3 mg/kg (Sprague-Dawley rats; 3 mg/kg i.p., 30 min pretreatment): no increase in response
Vogel conflict, increase of punished response rate over control, 30 mg/kg (Sprague-Dawley rats; 30 mg/kg i.p., 30 min pretreatment): about 220%
solubility [5]: good
Cytotoxicity in words (HEK293T cells): non-toxic
Brain concentration of dosed ligand, 60 min [1]: (60) 3640 nM
Rotarod failures, 30 mg/kg (NIH Swiss Webster mice [2]; i.p. 30 mg/kg): zero failures
Rotarod performance / ataxia, 30 mg/kg (NIH Swiss Webster mice [2]; i.p. 30 mg/kg): did not significantly alter rotarod performance compared to vehicle

C#Cc1ccc2c(c1)C(c1ccccc1F)=NCc1c(-c3cnco3)ncn1-2 [compound 10]
Cytotoxicity (18 h) LD50 (HEK293T cells): 61.5 µM and 61.5 ± 10 µM
Rotarod motorsensory behavior, 10 mg/kg (NIH Swiss Webster mice [2]): very minor impairment
